# Results taken from patent US9686983B2, “Tobacco axillary bud growth inhibitor and method for inhibiting tobacco axillary bud growth” (SDS BIOTECH K. K., priority 2013, dated 2017).
# Experiments:
# [1] = test system: tobacco leaves (first to fourth leaves from the top); test: Harmful effect of the inhibitor on tobacco leaves (growth inhibition, gangrene, change in color, deformation); assay type: in vivo, Nicotiana tabacum, Tsukuba 1 (flue-cured cultivar)
# Procedure: (§1) Tobacco seedlings of Tsukuba 1 (flue-cured cultivar) were transplanted to 1/5000a Wagner pots filled with Kureha garden nursery soil. The plants were grown in a glasshouse, and the floral axis parts were removed at the time of single-flower bloom of tobacco (top pruning).
# (§2) Samples were prepared by diluting the above-mentioned formulation containing 10% of chlorthal-dimethyl with water to predetermined concentrations, and adding thereto the formulation containing 70% of decyl alcohol so as to make each sample have a predetermined concentration, and subjected to the test (Examples 1 to 6). Samples were also prepared by diluting the formulation containing 10% of chlorthal-dimethyl with water to predetermined concentrations, and adding thereto the formulation containing 70% of 2-ethyl hexanol so as to make each sample have a predetermined concentration, and subjected to the test (Examples 7 to 12). Samples were also prepared by diluting the formulation containing 10% of chlorthal-dimethyl with water to predetermined concentrations, and adding thereto the formulation containing 70% of […] so as to make each sample have a predetermined concentration, and subjected to the test (Examples 13 to 18). Furthermore, as Comparative Examples, samples were prepared by diluting samples were also prepared by diluting the formulation containing 10% of chlorthal-dimethyl with water to predetermined concentrations (Comparative Examples 1 to 4), by diluting the formulation containing 70% of decyl alcohol with water to predetermined concentrations (Comparative Examples 5 to 7), and by diluting the formulation containing 70% of […] with water to predetermined concentrations (Comparative Examples 8 to 10), and by diluting the formulation containing 70% of […] with water to predetermined concentrations (Comparative Examples 11 to 13) to be subjected to the test. In addition, butralin (tradename: Blue Ribbon) (Comparative Example 14) was subjected to the test.
# (§3) With respect to each of the formulations of the inhibitors for tobacco axillary bud growth, 20 ml of the water-diluted solutions of the respective inhibitors were separately sprayed using a contact-type axillary bud inhibitor spraying instrument equipped with a spot exhaust nozzle. One tobacco plant was planted per pot, and the tests were carried out in duplicate.
# Further, the presence or absence of the harmful effect of each inhibitor was evaluated in one of the following four categories depending on the degrees of growth inhibition, gangrene, change in color, deformation and the like of leaves (first to fourth leaves from the top).
# Large: A severely harmful effect was observed.
# Middle: A clearly harmful effect was observed.
# Small: A slightly harmful effect was observed.
# Absent: No harmful effect was observed.
# [2] = test system: tobacco axillary bud growth; test: Tobacco axillary bud growth inhibition test, pot plants after top pruning, contact spray; assay type: in vivo, Nicotiana tabacum, Tsukuba 1 (flue-cured cultivar); settings: single active ingredient, 20 ml sprayed per plant, 28 days after spraying
# Procedure: as §1, §2, §3
# For the respective cases, states of inhibition of axillary bud growth 28 days after the spraying were investigated together with untreated groups sprayed with no inhibitor, and axillary bud growth inhibition rates were calculated by the following equation. Axillary bud growth inhibition rate=(fresh weight of axillary buds per plant of untreated group−fresh weight of axillary buds per plant of treated group)÷(fresh weight of axillary buds per plant of untreated group)×100 [Math. 1]
# It should be noted that the values in parentheses in Table 1 represent predicted values of the effects of inhibiting axillary bud growth of mixed agents (that is, compounds mixed as active ingredients), that is, expected values of additive effects. The expected values were calculated by the following Colby's equation (Colby. S. R.; “Calculating Synergistic and Antagonistic Responses of Herbicide Combinations” Weed, Vol. 15(1), 20-22, 1967). Colby's equation: E=x+y−x·y/100 [Math. 2]
# E: Axillary bud growth inhibition rate in the case of using a mixture of active compound A (concentration a) and active compound B (concentration b) (theoretical axillary bud growth inhibition rate)
# x: Axillary bud growth inhibition rate in the case of using active compound A at concentration a
# y: Axillary bud growth inhibition rate in the case of using active compound B at concentration b
# In the case where a measured value determined in the above-mentioned test (axillary bud growth inhibition rate) was larger than the expected value, a synergetic effect was expressed on activity to suppress axillary bud growth.
smiles,measurement,setting,value
"COC(=O)c1c(Cl)c(Cl)c(C(=O)OC)c(Cl)c1Cl [Comparative Ex. 1, dimethyl tetrachloroterephthalate]",Harmful effect,[1]; in vivo,None
same,Axillary bud growth inhibition (%),[2]; concentration 0.002 %,1.1%
"COC(=O)c1c(Cl)c(Cl)c(C(=O)OC)c(Cl)c1Cl [Comparative Ex. 4, dimethyl tetrachloroterephthalate]",Harmful effect,[1]; in vivo,None
same,Axillary bud growth inhibition (%),[2]; concentration 1 %,100%
"CCCCC(CC)CO (stereo not drawn) [Comparative Ex. 10, 2-ethyl hexanol]",Axillary bud growth inhibition (%),[2]; concentration 2.6 %,82.1%
"CCC(C)Nc1c([N+](=O)[O-])cc(C(C)(C)C)cc1[N+](=O)[O-] (stereo not drawn) [Comparative Ex. 14, Butralin]",Harmful effect,[1]; in vivo,Small degree
same,Axillary bud growth inhibition (%),[2]; concentration 0.35 %,98.2%
"CC(C)=CCC/C(C)=C/CO [Comparative Ex. 12, Geraniol]",Harmful effect,"[1]; single active ingredient, concentration 1.4 %, 20 ml sprayed per plant",None
same,Axillary bud growth inhibition (%),[2]; concentration 1.4 %,72.5%
"CCCCCCCCCCO [Comparative Ex. 6, Decyl alcohol]",Harmful effect,[1]; in vivo,None
same,Axillary bud growth inhibition (%),[2]; concentration 1.4 %,68.6%
"COC(=O)c1c(Cl)c(Cl)c(C(=O)OC)c(Cl)c1Cl [Comparative Ex. 3, dimethyl tetrachloroterephthalate]",Harmful effect,[1]; in vivo,None
same,Axillary bud growth inhibition (%),[2]; concentration 0.01 %,23.4%
"CCCCC(CC)CO (stereo not drawn) [Comparative Ex. 8, 2-ethyl hexanol]",Harmful effect,[1]; in vivo,None
same,Axillary bud growth inhibition (%),[2]; concentration 0.7 %,33.1%
"COC(=O)c1c(Cl)c(Cl)c(C(=O)OC)c(Cl)c1Cl [Comparative Ex. 2, dimethyl tetrachloroterephthalate]",Harmful effect,[1]; in vivo,None
same,Axillary bud growth inhibition (%),[2]; concentration 0.005 %,4.2%
"CCCCCCCCCCO [Comparative Ex. 7, Decyl alcohol]",Axillary bud growth inhibition (%),[2]; concentration 2.6 %,86.8%
"CC(C)=CCC/C(C)=C/CO [Comparative Ex. 11, Geraniol]",Harmful effect,"[1]; single active ingredient, concentration 0.7 %, 20 ml sprayed per plant",None
same,Axillary bud growth inhibition (%),[2]; concentration 0.7 %,52.1%
"CCCCCCCCCCO [Comparative Ex. 5, Decyl alcohol]",Harmful effect,[1]; in vivo,None
same,Axillary bud growth inhibition (%),[2]; concentration 0.7 %,41.4%
"CC(C)=CCC/C(C)=C/CO [Comparative Ex. 13, Geraniol]",Harmful effect,"[1]; single active ingredient, concentration 2.6 %, 20 ml sprayed per plant",Medium degree
same,Harmful effect,"[1]; single active ingredient, concentration 2.6 %, 20 ml sprayed per plant, listed as Comparative Example 13",small or medium degree
same,Axillary bud growth inhibition (%),[2]; concentration 2.6 %,87.9%
"CCCCC(CC)CO (stereo not drawn) [Comparative Ex. 9, 2-ethyl hexanol]",Harmful effect,[1]; in vivo,None
same,Axillary bud growth inhibition (%),[2]; concentration 1.4 %,66.6%
